Source: doi:10.64898/2025.12.04.692396, “Mechanisms of ligand recognition and channel opening for P2X2 receptors in lipid nanodiscs” (bioRxiv, 2025)
Changes are numbered by the printed parent chain.

Assays:
Format in all cases: cell-based
[1] = target: T1, hP2X2R (human P2X2 receptor) (Homo sapiens, UniProt Q9UBL9, R130A); assay: whole-cell patch clamp in HEK293 cells, EDTA solution
T1 construct: gene P2RX2; hP2X2-L
T1 sequence (Q9UBL9 1-471 R130A): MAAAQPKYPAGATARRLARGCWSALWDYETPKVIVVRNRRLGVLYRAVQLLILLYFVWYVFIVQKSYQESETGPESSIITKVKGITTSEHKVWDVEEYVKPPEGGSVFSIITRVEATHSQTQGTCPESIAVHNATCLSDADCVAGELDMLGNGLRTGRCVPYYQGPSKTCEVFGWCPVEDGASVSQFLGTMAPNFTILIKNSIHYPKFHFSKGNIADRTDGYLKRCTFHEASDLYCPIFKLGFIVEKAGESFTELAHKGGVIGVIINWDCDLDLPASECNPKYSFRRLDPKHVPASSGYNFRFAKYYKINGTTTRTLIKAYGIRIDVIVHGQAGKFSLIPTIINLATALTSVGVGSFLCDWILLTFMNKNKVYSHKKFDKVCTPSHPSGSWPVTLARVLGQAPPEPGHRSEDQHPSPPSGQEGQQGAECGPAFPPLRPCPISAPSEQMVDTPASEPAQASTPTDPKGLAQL

[2] = target: T2, hP2X2R (human P2X2 receptor) (Homo sapiens, UniProt Q9UBL9); assay: cryo-EM structure in nanodiscs; whole-cell patch clamp EC50 in EDTA ([…] with divalent cations)
T2 construct: gene P2RX2; hP2X2-L (Q9UBL9-1) with ATP4−; hP2X2-S (Q9UBL9-2) with Mg-ATP2−; homotrimer in MSP1E3D1 lipid nanodiscs
T2 sequence (Q9UBL9 1-404 isoform Q9UBL9-2): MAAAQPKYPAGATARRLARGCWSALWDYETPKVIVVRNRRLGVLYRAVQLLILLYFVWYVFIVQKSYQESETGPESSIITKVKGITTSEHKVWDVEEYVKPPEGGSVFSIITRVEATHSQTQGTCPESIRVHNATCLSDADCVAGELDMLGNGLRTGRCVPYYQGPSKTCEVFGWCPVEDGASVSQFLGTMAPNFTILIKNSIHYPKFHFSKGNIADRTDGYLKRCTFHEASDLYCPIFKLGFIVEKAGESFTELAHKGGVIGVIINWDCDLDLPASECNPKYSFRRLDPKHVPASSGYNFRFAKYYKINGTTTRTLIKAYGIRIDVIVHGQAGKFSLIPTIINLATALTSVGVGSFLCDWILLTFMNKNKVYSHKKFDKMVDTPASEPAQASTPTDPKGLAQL

[3] = target: T3, hP2X2R (human P2X2 receptor) (Homo sapiens, UniProt Q9UBL9, R130E); assay: whole-cell patch clamp in HEK293 cells, EDTA solution
T3 construct: gene P2RX2; hP2X2-L
T3 sequence (Q9UBL9 1-471 R130E): T1 sequence (Q9UBL9 1-471 R130A) with A130E

[4] = target: T4, hP2X2R (human P2X2 receptor) (Homo sapiens, UniProt Q9UBL9)
T4 construct: gene P2RX2; hP2X2-L
T4 sequence (Q9UBL9 1-471): T1 sequence (Q9UBL9 1-471 R130A) with A130R

[5] = target: T1, hP2X2R (human P2X2 receptor)

Compound	EC50 [1]	EC50 [2]	EC50 [3]	whole-cell patch clamp in HEK293 cells (weak activation) [4]	whole-cell patch clamp in HEK293 cells (weak activation) [5]
Nc1ncnc2c1ncn2[C@@H]1O[C@H](COP(=O)(O)OP(=O)(O)OP(=O)(O)O)[C@@H](O)[C@H]1O [ATP]	3.7 ± 0.9 µM	1.4 ± 0.4 µM	4 ± 0.9 µM	–	–
Nc1ncnc2c1ncn2[C@@H]1O[C@H](COP(=O)(O)CP(=O)(O)OP(=O)(O)O)[C@@H](O)[C@H]1O [α,β-Methylene-ATP]	–	–	–	α,β-Methylene-ATP could only weakly activate either WT hP2X2 or the R130A mutant	α,β-Methylene-ATP could only weakly activate either WT hP2X2 or the R130A mutant
